Measurements published in patent US6689773B2, “Uracil substituted phenyl sulfamoyl carboxamides” (BASF Aktiengesellschaft, priority 2000, dated 2004).

Experiments:
Format in all cases: in vivo
[1] = system: Pharbitis purpurea (PHBPU), common or tall morningglory; assay: Greenhouse post-emergence herbicidal action (Example 149); conditions: 15.6 or 7.8 g/ha of a.i.
Protocol: (§1) The culture containers used were plastic flowerpots containing loamy sand with approximately 3.0% of humus as substrate. The seeds of the test plants were sown separately for each species.
(§2) For the post-emergence treatment, the test plants were grown to a plant height of from 3 to 15 cm, depending on the plant habit, and only then treated with the active ingredients which had been suspended or emulsified in water. To this end, the test plants were either sown directly and grown in the same containers, or they were first grown separately as seedlings and transplanted into the test containers a few days prior to treatment. The rate of application for the post-emergence treatment was 15.6 or 7.8 g/ha active ingredient.
(§3) Depending on the species, the plants were kept at from 10-25° C. and 20-35° C., respectively. The test period extended over 2 to 4 weeks. During this time, the plants were tended, and their response to the individual treatments was evaluated.
(§4) Evaluation was carried out using a scale of from 0 to 100. 100 means no emergence of the plants, or complete destruction of at least the aerial parts, and 0 means no damage or normal course of growth.
(§5) The plants used in the greenhouse experiments belonged to the following species: […]

[2] = system: Polygonum persicaria (POLPE), redshank; ladysthumb; assay: as above; conditions: 15.6 or 7.8 g/ha of a.i.
Protocol: as §1, §2, §3, §4, §5

[3] = system: Amaranthus retroflexus (AMARE), Redroot pigweed; assay: as above; conditions: 15.6 or 7.8 g/ha of a.i.
Protocol: as §1, §2, §3, §4, §5

[4] = system: ECHCG, Barnyardgrass, Echinochloa crusgalli, (L.)Beau; assay: Preemergence herbicidal evaluation (Example 148); conditions: rating scale 0-9, two to four weeks after treatment
How it was run: (§6)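 Applied: aqueous acetone solution, ~0.125–0.250 kg/ha, sprayed on soil just after seeding. Read: visual plant appearance against control, 2–4 weeks post-spray.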

[5] = system: DIGSA, Crabgrass, (Hairy) L, Digitaria sanguinalis, (L)Scop; assay: Preemergence herbicidal evaluation (Example 148); conditions: rating scale 0-9, two to four weeks after treatment
How it was run: as §6

[6] = system: ZEAMX, Field corn, Zea mays L.; assay: Preemergence herbicidal evaluation (Example 148); conditions: rating scale 0-9, two to four weeks after treatment
How it was run: as §6

[7] = system: AMBEL, Ragweed, Common, Ambrosia artemiisifolia, L.; assay: Preemergence herbicidal evaluation (Example 148); conditions: rating scale 0-9, two to four weeks after treatment
How it was run: as §6

[8] = system: GLXMA, Soybean, Glycine max, (L.) Merr.; assay: Preemergence herbicidal evaluation (Example 148); conditions: rating scale 0-9, two to four weeks after treatment
How it was run: as §6

[9] = system: TRZAW, Winter wheat, Tritium Aestivum, L. (Winter); assay: Preemergence herbicidal evaluation (Example 148); conditions: rating scale 0-9, two to four weeks after treatment
How it was run: as §6

[10] = system: IPOHE, Morningglory, Ivyleaf, Ipomoea hederacea, (L)Jacq.; assay: Preemergence herbicidal evaluation (Example 148); conditions: rating scale 0-9, two to four weeks after treatment
How it was run: as §6

[11] = system: ABUTH, Velvetleaf, Abutilon theophrasti, Medic.; assay: Preemergence herbicidal evaluation (Example 148); conditions: rating scale 0-9, two to four weeks after treatment
How it was run: as §6

[12] = system: CHEAL, Lambsquarters, Chenopodium album, L. Common; assay: Preemergence herbicidal evaluation (Example 148); conditions: rating scale 0-9, two to four weeks after treatment
How it was run: as §6

[13] = system: XANST, Cocklebur, Xanthium strumariam; assay: Preemergence herbicidal evaluation (Example 148); conditions: rating scale 0-9, two to four weeks after treatment
How it was run: as §6

[14] = system: SETVI, Green foxtail, Setaria viridis, (L.)Beau; assay: Preemergence herbicidal evaluation (Example 148); conditions: rating scale 0-9, two to four weeks after treatment
How it was run: as §6

[15] = system: ALOMY, Blackgrass, Alopecurus myosuroides; assay: Preemergence herbicidal evaluation (Example 148); conditions: rating scale 0-9, two to four weeks after treatment
How it was run: as §6

[16] = system: ECHCG, Barnyardgrass, Echinochloa crusgalli, (L.)Beau; assay: Postemergence herbicidal evaluation (Example 147); conditions: rating scale 0-9, two to three weeks after treatment
How it was run: (§7)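 Values are 0-9 visual scores, averaged over repeat tests where available. Seedlings of about two weeks were sprayed with roughly 0.016 to 0.032 kg/ha in 80/20 acetone/water plus 1.0% seed oil, then held in the greenhouse two to three weeks.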

[17] = system: DIGSA, Crabgrass, (Hairy) L, Digitaria sanguinalis, (L)Scop; assay: Postemergence herbicidal evaluation (Example 147); conditions: rating scale 0-9, two to three weeks after treatment
How it was run: as §7

[18] = system: ZEAMX, Field corn, Zea mays L.; assay: Postemergence herbicidal evaluation (Example 147); conditions: rating scale 0-9, two to three weeks after treatment
How it was run: as §7

[19] = system: AMBEL, Ragweed, Common, Ambrosia artemiisifolia, L.; assay: Postemergence herbicidal evaluation (Example 147); conditions: rating scale 0-9, two to three weeks after treatment
How it was run: as §7

[20] = system: GLXMA, Soybean, Glycine max, (L.) Merr.; assay: Postemergence herbicidal evaluation (Example 147); conditions: rating scale 0-9, two to three weeks after treatment
How it was run: as §7

[21] = system: TRZAW, Winter wheat, Tritium Aestivum, L. (Winter); assay: Postemergence herbicidal evaluation (Example 147); conditions: rating scale 0-9, two to three weeks after treatment
How it was run: as §7

[22] = system: IPOHE, Morningglory, Ivyleaf, Ipomoea hederacea, (L)Jacq.; assay: Postemergence herbicidal evaluation (Example 147); conditions: rating scale 0-9, two to three weeks after treatment
How it was run: as §7

[23] = system: ABUTH, Velvetleaf, Abutilon theophrasti, Medic.; assay: Postemergence herbicidal evaluation (Example 147); conditions: rating scale 0-9, two to three weeks after treatment
How it was run: as §7

[24] = system: CHEAL, Lambsquarters, Chenopodium album, L. Common; assay: Postemergence herbicidal evaluation (Example 147); conditions: rating scale 0-9, two to three weeks after treatment
How it was run: as §7

[25] = system: XANST, Cocklebur, Xanthium strumariam; assay: Postemergence herbicidal evaluation (Example 147); conditions: rating scale 0-9, two to three weeks after treatment
How it was run: as §7

[26] = system: SETVI, Green foxtail, Setaria viridis, (L.)Beau; assay: Postemergence herbicidal evaluation (Example 147); conditions: rating scale 0-9, two to three weeks after treatment
How it was run: as §7

[27] = system: ALOMY, Blackgrass, Alopecurus myosuroides; assay: Postemergence herbicidal evaluation (Example 147); conditions: rating scale 0-9, two to three weeks after treatment
How it was run: as §7

SMILES: CC(C)N(C)S(=O)(=O)NC(=O)c1cc(-n2c(=O)n(C)c(=S)n(C)c2=O)c(F)cc1Cl [Ij.86, N′-[2-Chloro-5-(3,5-dimethyl-2,6-dioxo-4-thioxo-1,3,5-triazinan-1-yl)-4-fluorobenzoyl]-N-isopropyl-N-methylsulfamide]
- herbicidal action [1]: very good herbicial action
- herbicidal action [2]: very good herbicial action
- herbicidal action [3]: very good herbicial action

SMILES: CCOC(=O)CN(C)S(N)(=O)=O [compound 53]
- Preemergence herbicidal rating ECHCG ([4]; rate 0.125 kg/ha): 7.5
- Preemergence herbicidal rating ECHCG ([4]; rate 0.25 kg/ha): 8.4
- Preemergence herbicidal rating DIGSA ([5]; rate 0.125 kg/ha): 8.1
- Preemergence herbicidal rating DIGSA ([5]; rate 0.25 kg/ha): 8.8
- Preemergence herbicidal rating ZEAMX ([6]; rate 0.125 kg/ha): 2.3
- Preemergence herbicidal rating ZEAMX ([6]; rate 0.25 kg/ha): 4.3
- Preemergence herbicidal rating AMBEL ([7]; rate 0.125 kg/ha): 8.9
- Preemergence herbicidal rating AMBEL ([7]; rate 0.25 kg/ha): 9.0
- Preemergence herbicidal rating GLXMA ([8]; rate 0.125 kg/ha): 8.1
- Preemergence herbicidal rating GLXMA ([8]; rate 0.25 kg/ha): 8.8
- Preemergence herbicidal rating TRZAW ([9]; rate 0.125 kg/ha): 1.3
- Preemergence herbicidal rating TRZAW ([9]; rate 0.25 kg/ha): 2.0
- Preemergence herbicidal rating IPOHE ([10]; rate 0.125 kg/ha): 9.0
- Preemergence herbicidal rating IPOHE ([10]; rate 0.25 kg/ha): 9.0
- Preemergence herbicidal rating ABUTH ([11]; rate 0.125 kg/ha): 9.0
- Preemergence herbicidal rating ABUTH ([11]; rate 0.25 kg/ha): 9.0
- Preemergence herbicidal rating CHEAL ([12]; rate 0.125 kg/ha): 9.0
- Preemergence herbicidal rating CHEAL ([12]; rate 0.25 kg/ha): 9.0
- Preemergence herbicidal rating XANST ([13]; rate 0.125 kg/ha): 9.0
- Preemergence herbicidal rating XANST ([13]; rate 0.25 kg/ha): 9.0
- Preemergence herbicidal rating SETVI ([14]; rate 0.125 kg/ha): 5.7
- Preemergence herbicidal rating SETVI ([14]; rate 0.25 kg/ha): 7.3
- Preemergence herbicidal rating ALMOY ([15]; rate 0.125 kg/ha): 1.3
- Preemergence herbicidal rating ALMOY ([15]; rate 0.25 kg/ha): 2.7
- Postemergence herbicidal rating ECHCG ([16]; rate 0.016 kg/ha): 8.1
- Postemergence herbicidal rating ECHCG ([16]; rate 0.032 kg/ha): 8.8
- Postemergence herbicidal rating DIGSA ([17]; rate 0.016 kg/ha): 5.3
- Postemergence herbicidal rating DIGSA ([17]; rate 0.032 kg/ha): 6.6
- Postemergence herbicidal rating ZEAMX ([18]; rate 0.016 kg/ha): 7.2
- Postemergence herbicidal rating ZEAMX ([18]; rate 0.032 kg/ha): 7.6
- Postemergence herbicidal rating AMBEL ([19]; rate 0.016 kg/ha): 8.9
- Postemergence herbicidal rating AMBEL ([19]; rate 0.032 kg/ha): 9.0
- Postemergence herbicidal rating GLXMA ([20]; rate 0.016 kg/ha): 8.1
- Postemergence herbicidal rating GLXMA ([20]; rate 0.032 kg/ha): 8.4
- Postemergence herbicidal rating TRZAW ([21]; rate 0.016 kg/ha): 5.6
- Postemergence herbicidal rating TRZAW ([21]; rate 0.032 kg/ha): 6.2
- Postemergence herbicidal rating IPOHE ([22]; rate 0.016 kg/ha): 8.8
- Postemergence herbicidal rating IPOHE ([22]; rate 0.032 kg/ha): 9.0
- Postemergence herbicidal rating ABUTH ([23]; rate 0.016 kg/ha): 9.0
- Postemergence herbicidal rating ABUTH ([23]; rate 0.032 kg/ha): 9.0
- Postemergence herbicidal rating CHEAL ([24]; rate 0.016 kg/ha): 8.1
- Postemergence herbicidal rating CHEAL ([24]; rate 0.032 kg/ha): 8.4
- Postemergence herbicidal rating XANST ([25]; rate 0.016 kg/ha): 9.0
- Postemergence herbicidal rating XANST ([25]; rate 0.032 kg/ha): 9.0
- Postemergence herbicidal rating SETVI ([26]; rate 0.016 kg/ha): 6.4
- Postemergence herbicidal rating SETVI ([26]; rate 0.032 kg/ha): 7.5
- Postemergence herbicidal rating ALMOY ([27]; rate 0.016 kg/ha): 2.3
- Postemergence herbicidal rating ALMOY ([27]; rate 0.032 kg/ha): 3.0
